Experiments:
[1] = target: Prostaglandin G/H synthase 1 (Homo sapiens, UniProt P23219); experiment: biochemical; format: tissue-based, Platelet;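 note: inhibition of COX-1 enzyme activity, with arachidonic acid supplied as substrate; in other assays of this panel Not Active means under 50% inhibition at 10 µM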
[2] = target: Voltage-gated inwardly rectifying potassium channel KCNH2 (Homo sapiens, UniProt Q12809); details: hek293; note: in other assays of this panel Not Active means under 50% inhibition at 10 µM
[3] = target: 5-hydroxytryptamine receptor 1B (Rattus norvegicus, UniProt P28564); format: cell membranes, Wistar, Cerebral cortex, Membrane; note: in other assays of this panel Not Active means under 50% inhibition at 10 µM
[4] = DRUGMATRIX: Tumor Necrosis Factor (TNF), Non-Selective radioligand binding (ligand: [125I] TNF-alpha); format: cell membranes, Membrane; details: u-937; Not Active = under 50% inhibition at 10 µM
[5] = DRUGMATRIX: Serotonin (5-Hydroxytryptamine) 5-HT3 radioligand binding (ligand: [3H] GR-65630); format: cell membranes, Membrane; details: hek293; Not Active = under 50% inhibition at 10 µM
[6] = target: T1, Neutrophil elastase (Homo sapiens, UniProt P08246); format: tissue-based;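 note: inhibition of neutrophil elastase enzyme activity, measured with a p-nitroanilide-linked peptide substrate; in other assays of this panel Not Active means under 50% inhibition at 10 µM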
T1 sequence (P08246 whole entry): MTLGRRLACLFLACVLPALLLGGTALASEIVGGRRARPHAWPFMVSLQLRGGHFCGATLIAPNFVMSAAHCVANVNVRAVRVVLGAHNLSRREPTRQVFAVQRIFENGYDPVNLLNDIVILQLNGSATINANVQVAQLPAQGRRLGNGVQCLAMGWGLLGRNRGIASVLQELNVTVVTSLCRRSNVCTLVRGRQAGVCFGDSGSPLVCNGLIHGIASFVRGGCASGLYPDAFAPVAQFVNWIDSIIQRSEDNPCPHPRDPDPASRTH

[7] = target: Vasopressin V1a receptor (Homo sapiens, UniProt P37288); format: cell membranes, Membrane; details: hek293; note: in other assays of this panel Not Active means under 50% inhibition at 10 µM
[8] = target: T2, Polyunsaturated fatty acid lipoxygenase ALOX15 (Oryctolagus cuniculus, UniProt P12530); experiment: biochemical; format: tissue-based, Reticulocytes
T2 sequence (P12530 whole entry): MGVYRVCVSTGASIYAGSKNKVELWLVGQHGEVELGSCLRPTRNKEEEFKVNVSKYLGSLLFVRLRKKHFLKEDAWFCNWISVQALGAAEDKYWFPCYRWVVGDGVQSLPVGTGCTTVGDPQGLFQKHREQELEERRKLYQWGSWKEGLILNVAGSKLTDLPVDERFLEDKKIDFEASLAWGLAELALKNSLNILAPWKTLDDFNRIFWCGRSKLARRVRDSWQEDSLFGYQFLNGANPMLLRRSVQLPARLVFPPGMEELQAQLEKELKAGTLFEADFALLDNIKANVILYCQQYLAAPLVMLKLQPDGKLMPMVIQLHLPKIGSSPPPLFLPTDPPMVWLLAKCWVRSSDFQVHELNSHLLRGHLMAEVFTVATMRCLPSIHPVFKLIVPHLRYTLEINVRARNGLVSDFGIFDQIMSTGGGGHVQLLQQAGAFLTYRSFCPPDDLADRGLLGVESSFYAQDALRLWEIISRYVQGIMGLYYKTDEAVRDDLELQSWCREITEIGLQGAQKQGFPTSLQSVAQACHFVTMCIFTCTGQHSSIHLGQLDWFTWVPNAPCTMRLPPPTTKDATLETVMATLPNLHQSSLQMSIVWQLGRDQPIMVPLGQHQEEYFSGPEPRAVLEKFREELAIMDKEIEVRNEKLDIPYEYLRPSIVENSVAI

Chain of Vasopressin V1a receptor (P37288 whole entry): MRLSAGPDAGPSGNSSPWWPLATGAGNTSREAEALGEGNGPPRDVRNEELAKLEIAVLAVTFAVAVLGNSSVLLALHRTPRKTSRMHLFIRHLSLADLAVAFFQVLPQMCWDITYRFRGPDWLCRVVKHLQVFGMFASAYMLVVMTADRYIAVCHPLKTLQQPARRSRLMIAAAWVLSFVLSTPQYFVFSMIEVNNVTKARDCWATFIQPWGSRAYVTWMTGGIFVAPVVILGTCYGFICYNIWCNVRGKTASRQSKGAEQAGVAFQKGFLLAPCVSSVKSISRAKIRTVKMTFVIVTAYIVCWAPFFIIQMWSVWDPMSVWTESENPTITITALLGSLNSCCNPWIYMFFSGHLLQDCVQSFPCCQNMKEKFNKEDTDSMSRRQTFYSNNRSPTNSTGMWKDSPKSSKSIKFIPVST
Chain of 5-hydroxytryptamine receptor 1B (P28564 whole entry): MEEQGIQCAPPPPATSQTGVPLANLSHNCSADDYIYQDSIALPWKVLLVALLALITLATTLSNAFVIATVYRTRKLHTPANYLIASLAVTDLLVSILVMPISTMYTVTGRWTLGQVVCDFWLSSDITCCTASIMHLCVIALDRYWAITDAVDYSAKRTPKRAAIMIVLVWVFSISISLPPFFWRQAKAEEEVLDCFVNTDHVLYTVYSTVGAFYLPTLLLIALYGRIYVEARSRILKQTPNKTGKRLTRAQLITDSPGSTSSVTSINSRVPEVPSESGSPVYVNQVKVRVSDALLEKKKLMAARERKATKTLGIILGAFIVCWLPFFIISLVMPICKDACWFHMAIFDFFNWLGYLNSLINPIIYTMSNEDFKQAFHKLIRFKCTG
Chain of Prostaglandin G/H synthase 1 (P23219 whole entry): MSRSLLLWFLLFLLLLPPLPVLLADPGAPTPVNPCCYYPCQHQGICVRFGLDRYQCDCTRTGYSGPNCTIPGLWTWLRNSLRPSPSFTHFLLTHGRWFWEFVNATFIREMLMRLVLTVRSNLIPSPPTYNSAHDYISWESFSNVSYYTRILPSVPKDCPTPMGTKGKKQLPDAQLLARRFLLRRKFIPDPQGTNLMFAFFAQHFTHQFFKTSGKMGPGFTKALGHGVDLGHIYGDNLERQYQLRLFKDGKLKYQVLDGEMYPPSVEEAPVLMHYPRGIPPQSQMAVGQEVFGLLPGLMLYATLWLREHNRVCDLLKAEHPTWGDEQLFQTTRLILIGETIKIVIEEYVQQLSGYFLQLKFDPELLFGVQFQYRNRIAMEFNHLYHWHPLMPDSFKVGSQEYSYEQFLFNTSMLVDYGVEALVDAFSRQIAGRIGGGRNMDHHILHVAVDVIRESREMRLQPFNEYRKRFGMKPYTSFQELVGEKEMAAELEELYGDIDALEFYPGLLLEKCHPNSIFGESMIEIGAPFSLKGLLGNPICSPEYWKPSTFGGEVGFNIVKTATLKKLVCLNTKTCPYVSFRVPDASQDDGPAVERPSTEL
Chain of Voltage-gated inwardly rectifying potassium channel KCNH2 (Q12809 whole entry): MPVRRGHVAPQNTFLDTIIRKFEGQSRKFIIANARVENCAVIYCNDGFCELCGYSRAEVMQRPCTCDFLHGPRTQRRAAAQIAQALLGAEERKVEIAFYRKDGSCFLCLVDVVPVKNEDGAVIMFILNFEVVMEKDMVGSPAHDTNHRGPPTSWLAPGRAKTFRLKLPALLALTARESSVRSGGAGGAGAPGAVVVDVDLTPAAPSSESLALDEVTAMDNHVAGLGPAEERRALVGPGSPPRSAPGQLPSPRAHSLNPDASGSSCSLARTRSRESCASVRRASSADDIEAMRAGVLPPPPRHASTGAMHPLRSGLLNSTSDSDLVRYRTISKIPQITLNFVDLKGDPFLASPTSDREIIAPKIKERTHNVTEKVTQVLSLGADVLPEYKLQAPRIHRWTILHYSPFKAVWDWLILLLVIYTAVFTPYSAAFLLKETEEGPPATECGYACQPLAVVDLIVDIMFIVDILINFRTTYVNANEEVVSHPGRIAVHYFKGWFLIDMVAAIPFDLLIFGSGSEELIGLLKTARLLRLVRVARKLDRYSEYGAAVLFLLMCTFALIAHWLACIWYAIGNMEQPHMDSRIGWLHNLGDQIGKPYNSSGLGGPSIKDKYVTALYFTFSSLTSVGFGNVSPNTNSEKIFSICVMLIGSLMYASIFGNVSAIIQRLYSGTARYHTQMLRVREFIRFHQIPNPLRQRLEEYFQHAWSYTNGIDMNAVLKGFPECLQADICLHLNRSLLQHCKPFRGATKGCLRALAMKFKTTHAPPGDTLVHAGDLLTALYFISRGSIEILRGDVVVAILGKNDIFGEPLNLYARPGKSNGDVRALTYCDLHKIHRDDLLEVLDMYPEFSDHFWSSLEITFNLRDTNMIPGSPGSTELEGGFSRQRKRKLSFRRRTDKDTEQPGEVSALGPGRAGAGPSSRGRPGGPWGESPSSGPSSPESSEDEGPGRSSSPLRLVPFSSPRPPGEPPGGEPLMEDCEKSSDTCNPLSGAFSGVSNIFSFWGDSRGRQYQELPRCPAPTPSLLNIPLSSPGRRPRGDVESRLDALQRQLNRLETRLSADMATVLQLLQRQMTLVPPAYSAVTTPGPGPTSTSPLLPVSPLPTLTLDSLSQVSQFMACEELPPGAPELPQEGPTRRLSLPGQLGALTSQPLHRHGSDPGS

Structure (SMILES)	IC50 ([1]; platelet)	IC50 [2]	Ki [2]	IC50 [3]	IC50 [4]	Ki [4]	IC50 [5]	Ki [5]	IC50 [6]	IC50 [7]	IC50 ([8]; reticulocytes)	IC50 ([1]; read-out: IC50)	IC50 ([8]; read-out: IC50)
C=CCc1ccc(O)c(OC)c1 [EUGENOL]	Not Active	Not Active	Not Active	Not Active	Not Active	Not Active	Not Active	Not Active	Not Active	Not Active	Not Active		
CC(C(=O)O)c1cccc(Oc2ccccc2)c1 (stereo unspecified) [FENOPROFEN]		Not Active	Not Active	Not Active	Not Active	Not Active	Not Active	Not Active	Not Active	Not Active	Not Active	0.145 µM	
CC(C)(C)NC(=O)[C@H]1CC[C@H]2[C@@H]3CC[C@H]4NC(=O)C=C[C@]4(C)[C@H]3CC[C@]12C [FINASTERIDE]	Not Active	Not Active	Not Active	Not Active	Not Active	Not Active	Not Active	Not Active	Not Active	Not Active	Not Active		
COc1ccc2c3c1O[C@H]1C[C@@H](O)C=C[C@@]31CCN(C)C2 [GALANTAMINE]	Not Active	Not Active	Not Active	Not Active	Not Active	Not Active	Not Active	Not Active	Not Active	Not Active	Not Active		
Nc1ccn([C@@H]2O[C@H](CO)[C@@H](O)C2(F)F)c(=O)n1 [GEMCITABINE]	Not Active	Not Active	Not Active	Not Active	Not Active	Not Active	Not Active	Not Active	Not Active	Not Active	Not Active		
CC(C)=CCC/C(C)=C/CO [GERANIOL]	Not Active	Not Active	Not Active	Not Active	Not Active	Not Active	Not Active	Not Active	Not Active	Not Active	Not Active		
N=C(N)NC(=O)Cc1c(Cl)cccc1Cl [GUANFACINE]	Not Active	Not Active	Not Active	Not Active	Not Active	Not Active	Not Active	Not Active	Not Active	Not Active	Not Active		
Oc1c(Cl)cc(Cl)c(Cl)c1Cc1c(O)c(Cl)cc(Cl)c1Cl [HEXACHLOROPHENE]	Not Active	Not Active	Not Active	Not Active	Not Active	Not Active	Not Active	Not Active	Not Active	Not Active	Not Active		
NNc1nncc2ccccc12 [HYDRALAZINE]	Not Active	Not Active	Not Active	Not Active	Not Active	Not Active	Not Active	Not Active	Not Active	Not Active			3.65 µM
CC(=O)[C@@]1(O)CC[C@H]2[C@@H]3CCC4=CC(=O)CC[C@]4(C)[C@H]3CC[C@@]21C [HYDROXYPROGESTERONE]	Not Active	Not Active	Not Active	Not Active	Not Active	Not Active	Not Active	Not Active	Not Active	Not Active	Not Active		
COC1=C(OC)C(=O)C(CCCCCCCCCCO)=C(C)C1=O [IDEBENONE]	Not Active	Not Active	Not Active	Not Active	Not Active	Not Active	Not Active	Not Active	Not Active	Not Active	Not Active		
